Peptide text beside a SMILES is read from it.
Experiments:
[1] = Inhibition of human serum C1s-mediated lysis of rabbit Ab-sensitized sheep erythrocytes after 60 mins
[2] = Inhibition of factor D in […]-activated human serum assessed as decrease in human erythrocyte lysis
[3] = Inhibition of factor D in […]-activated rat serum assessed as decrease in human erythrocyte lysis
[4] = Inhibition of C9 binding to C5b678 in […] activated human serum assessed as suppression of human erythrocyte lysis after 1 hr by ELISA
[5] = Inhibition of human serum C2-mediated lysis of antibody-sensitized sheep red blood cells after 30 mins by UV-Vis spectrophotometric method

Compound: N=C(N)c1cc2ccc(OC(=O)c3cccs3)cc2s1
- IC50 [1]: 0.046 µM

Compound: CC(=O)Oc1ccc(Cc2ccc(OC(C)=O)c(C(=O)O)c2)cc1C(=O)O
- IC50 [2]: 0.1 µM
- IC50 [3]: 0.1 µM

Compound: CC(=O)Oc1ccc(-c2ccc(OC(C)=O)c(C(=O)O)c2)cc1C(=O)O
- IC50 [2]: 0.1 µM
- IC50 [3]: 0.1 µM

Compound: O=C(O)C1=C/C(=C\c2cc(C(c3ccc(O)c(C(=O)O)c3)c3ccc(O)c(C(=O)O)c3)cc(C(=O)O)c2O)C=CC1=O
- IC50 [4]: 0.5 µM

Compound: O=C(O)C1=C/C(=C(/c2ccc(O)c(C(=O)O)c2)c2cc(Cc3cc(C(c4ccc(O)c(C(=O)O)c4)c4ccc(O)c(C(=O)O)c4)cc(C(=O)O)c3O)cc(C(=O)O)c2O)C=CC1=O
- IC50 [4]: 0.5 µM

Compound: CC(=O)N[C@@H](CCCNC(=N)N)C(=O)N[C@@H](CC(C)C)C(=O)N[C@@H](CC(C)C)C(=O)N[C@@H](CC(C)C)C(=O)N[C@@H](C)C(=O)N[C@H](C=O)CCCNC(=N)N (Ac-RLLLAR-aldehyde)
- IC50 [5]: 28 µM

Compound: O=C(O)C1=CC(=C(c2ccc(O)c(C(=O)O)c2)c2ccc(O)c(C(=O)O)c2)C=CC1=O [MLS002153482]
- IC50 [4]: 0.5 µM

Source: BindingDB's records for doi:10.1021/acs.jmedchem.7b00882 (The University of Queensland, 2018)
